Measured values reported in patent publication US12214017B2, “GLP-1 compositions and uses thereof” (Novo Nordisk A/S, priority 2017, dated 2025).

Test: Assay (III): purity of liraglutide by HPLC (chemical stability)
Type: physicochemical
Conditions: composition without phenol, compared with phenol-containing compositions
Description: Assay (III): Determination of Purity of Liraglutide
Determination of purity was performed using high performance liquid chromatography (HPLC) using a Waters XTerra™ MS C18 column with a gradient elution of two mobile phases, where one mobile phase was an aqueous ammonium phosphate buffer (pH 8)/acetonitrile mixture and the other mobile phase was acetonitrile in water. Detection was performed at 215 nm.
The results in Table 5 were obtained as follows: Compositions comprising liraglutide were tested. The tested compositions contained liraglutide (as specified in Table 4), mannitol (36.9 mg/ml), disodium hydrogen phosphate (1.42 mg/ml), and optionally phenol (as specified in Table 4), at pH 7.4 in an aqueous solution. These compositions were prepared as described herein in the section General Methods of Preparation. Chemical stability as expressed by purity was determined by Assay (III) described herein at start of the experiment and after storage at 25° C. or at 37° C.

Structure (SMILES): CCCCCCCCCCCCCCCC(=O)N[C@@H](CCC(=O)NCCCC[C@H](NC(=O)[C@H](C)NC(=O)[C@H](C)NC(=O)[C@H](CCC(N)=O)NC(=O)CNC(=O)[C@H](CCC(=O)O)NC(=O)[C@H](CC(C)C)NC(=O)[C@H](Cc1ccc(O)cc1)NC(=O)[C@H](CO)NC(=O)[C@H](CO)NC(=O)[C@@H](NC(=O)[C@H](CC(=O)O)NC(=O)[C@H](CO)NC(=O)[C@@H](NC(=O)[C@H](Cc1ccccc1)NC(=O)[C@@H](NC(=O)CNC(=O)[C@H](CCC(=O)O)NC(=O)[C@H](C)NC(=O)[C@@H](N)Cc1cnc[nH]1)[C@@H](C)O)[C@@H](C)O)C(C)C)C(=O)N[C@@H](CCC(=O)O)C(=O)N[C@@H](Cc1ccccc1)C(=O)N[C@H](C(=O)N[C@@H](C)C(=O)N[C@@H](Cc1c[nH]c2ccccc12)C(=O)N[C@@H](CC(C)C)C(=O)N[C@H](C(=O)N[C@@H](CCCNC(=N)N)C(=O)NCC(=O)N[C@@H](CCCNC(=N)N)C(=O)NCC(=O)O)C(C)C)[C@@H](C)CC)C(=O)O [liraglutide]
- Chemical stability of liraglutide (in words): less chemically stable
